Test results from patent publication US20100041089A1, “IMPROVED METHOD FOR DETECTING CHEMICAL […]” (priority 2006, published 2010).

Test system: yeast genes (expressed mRNA)
Experiment: DNA chip measurement of expressed mRNA of yeast genes after culture with a toxic chemical substance
Format: cell-based, Saccharomyces cerevisiae S288C
Description: Yeast (Saccharomyces cerevisiae S288C (a SUC2mal mel gap2 CUP1)) were cultured at 25° C. on YPD medium (yeast extract 1%, polypeptone 2%, glucose 2%). One of toxic chemical substances was added to the cell at logarithmic growth phase, and the cell was further cultured for two hours. Cell was cultured without any chemical substance in the same condition, and was used as a control. Concentrations of the chemical substances were defined to inhibit the growth of the yeast but not lead to death.
After the completion of cultivation, the culture was centrifuged to collect the cells. To the cells, sodium acetate buffer (50 mM sodium acetate, 10 mM EDTA, 1% SDS) was added, and the mixture was shaken at 65° C. for five minutes, followed by returning to room temperature, and obtaining the supernatant, which procedure was repeated two times. To the supernatant, ½ amount of a solution of phenol/chloroform (1:1) was added, and the mixture was centrifuged to give a supernatant, an equal amount of chloroform was added, and the mixture was centrifuged to give a supernatant. To the supernatant, an equal amount of isopropanol containing 0.3 M sodium acetate was added, and the mixture was allowed to stand at room temperature for 30 minutes, after which the mixture was centrifuged to give sediment of the whole RNAs. Seventy % ethanol was added to the sediment, and the mixture was again centrifuged to give sediment, which was then dried and dissolved in water. mRNA was isolated from the whole RNAs as followings. In view of the fact that a poly A chain is attached to the 3′ terminus of mRNA, a polynucleotide having a poly T structure which was immobilized on the surface of latex beads was used to trap the mRNA, and then the mRNA was washed and eluted with spine column (Oligotex-dT30<Super>mRNA Purification Kit, Takara). Reverse transcription of the mRNA was conducted with a reverse transcriptase (Super Script II Reverse Transcriptase; catalogue No. 18064-014, GibcoBRL) using fluorescence-labeled nucleotides to give cDNAs that were introduced with Cy3-dUTP or Cy5-dUTP during the reverse transcription.
The labeled cDNAs were dissolved in TE buffer (10 mM Tris-HCl/1 mM EDTA, pH 8.0), and the solution was dropped on the DNA chip containing the whole genes of yeast (DNA Chip Research Inc. Japan) so that the cDNAs were hybridized on the DNA chip at 65° C. for over 12 hours. The fluoresces intensity of the DNA chip was read with a scanner, and the ratio relative to the fluorescence intensity resulting from the absence of chemical substance was estimated as the following, which is shown in Tables 1 to 9.
In the Tables, “Intensity” indicated in the rightmost column is a value of the level of expressed mRNA of each gene in control cells as divided by the average level of the expressions of the whole genes. A gene of which mRNA level is lower in control, and is higher in cases of addition of chemical substance, is especially useful in the detection of toxic substances.
Here, when a ratio of an amount of mRNA expressed in the presence of the chemical substance to an amount of mRNA expressed in the absence of the chemical substance is two or more, then it is considered significant.

Measured: The level of expressed mRNA in the presence of chemical substance/The level of expressed mRNA in the absence of chemical substance

O=[N+]([O-])c1cc[n+]([O-])c2ccccc12 [(5), 4-Nitroquinoline-N-oxide]
2.8: yeast gene YKL139W
1.4: yeast gene YDL072C, cultured two hours with substance | yeast gene YDR545W, cultured two hours with substance | yeast gene YFL006W, cultured two hours with substance | yeast gene YGR130C, cultured two hours with substance | yeast gene YIL087C, cultured two hours with substance | yeast gene YJR008W, cultured two hours with substance | yeast gene YMR295C, cultured two hours with substance | yeast gene YOL032W, cultured two hours with substance | yeast gene YOL047C, cultured two hours with substance | yeast gene YOL083W, cultured two hours with substance | yeast gene YOR019W, cultured two hours with substance
1.5: yeast gene YER004W, cultured two hours with substance | yeast gene YER035W, cultured two hours with substance | yeast gene YHR138C, cultured two hours with substance | yeast gene YJL057C, cultured two hours with substance | yeast gene YMR191W, cultured two hours with substance | yeast gene YOL082W, cultured two hours with substance | yeast gene YOL131W, cultured two hours with substance | yeast gene YPL196W, cultured two hours with substance
0.8: yeast gene YAL053W, cultured two hours with substance | yeast gene YER079W, cultured two hours with substance | yeast gene YER158C, cultured two hours with substance | yeast gene YER163C, cultured two hours with substance | yeast gene YJL066C, cultured two hours with substance | yeast gene YKL086W, cultured two hours with substance | yeast gene YLR149C, cultured two hours with substance | yeast gene YLR350W, cultured two hours with substance | yeast gene YML117W, cultured two hours with substance | yeast gene YMR184W, cultured two hours with substance | yeast gene YNL115C, cultured two hours with substance
1.1: yeast gene YFL024C, cultured two hours with substance | yeast gene YJL161W, cultured two hours with substance | yeast gene YKL071W, cultured two hours with substance | yeast gene YLR152C, cultured two hours with substance | yeast gene YMR067C, cultured two hours with substance | yeast gene YMR107W, cultured two hours with substance | yeast gene YMR316W, cultured two hours with substance | yeast gene YPR023C, cultured two hours with substance
0.9: yeast gene YEL001C, cultured two hours with substance | yeast gene YER175C, cultured two hours with substance | yeast gene YFL032W, cultured two hours with substance | yeast gene YGL037C, cultured two hours with substance | yeast gene YGL121C, cultured two hours with substance | yeast gene YGR110W, cultured two hours with substance | yeast gene YGR221C, cultured two hours with substance | yeast gene YMR095C, cultured two hours with substance | yeast gene YNL092W, cultured two hours with substance | yeast gene YOL071W, cultured two hours with substance | yeast gene YOL162W, cultured two hours with substance
2.0: yeast gene YDR357C, cultured two hours with substance | yeast gene YDR531W, cultured two hours with substance | yeast gene YGL053W, cultured two hours with substance
2.5: yeast gene YLR388W
1.2: yeast gene YBL107C, cultured two hours with substance | yeast gene YDR330W, cultured two hours with substance | yeast gene YDR391C, cultured two hours with substance | yeast gene YGR101W, cultured two hours with substance | yeast gene YGR154C, cultured two hours with substance | yeast gene YHR199C, cultured two hours with substance | yeast gene YMR102C, cultured two hours with substance | yeast gene YNL044W, cultured two hours with substance | yeast gene YOL036W, cultured two hours with substance | yeast gene YPL222W, cultured two hours with substance
0.6: yeast gene YOR197W, cultured two hours with substance | yeast gene YPL087W, cultured two hours with substance
2.7: yeast gene YHR055C (detoxification protein gene)
1.0: yeast gene YDL204W, cultured two hours with substance | yeast gene YDL222C, cultured two hours with substance | yeast gene YDR511W, cultured two hours with substance | yeast gene YJL171C, cultured two hours with substance | yeast gene YJR054W, cultured two hours with substance | yeast gene YKL151C, cultured two hours with substance | yeast gene YKL153W, cultured two hours with substance | yeast gene YLR194C, cultured two hours with substance | yeast gene YMR180C, cultured two hours with substance | yeast gene YOL150C, cultured two hours with substance
0.5: yeast gene YIL041W, cultured two hours with substance
1.9: yeast gene YKL195W, cultured two hours with substance | yeast gene YMR009W, cultured two hours with substance
2.9: yeast gene YHR053C (detoxification protein gene)
2.2: yeast gene YML107C, cultured two hours with the substance
1.7: yeast gene YJL082W, cultured two hours with substance | yeast gene YNL234W, cultured two hours with substance | yeast gene YNL281W, cultured two hours with substance | yeast gene YNR068C, cultured two hours with substance | yeast gene YOL117W, cultured two hours with substance
2.4: yeast gene YHR136C
1.8: yeast gene YDR003W, cultured two hours with substance | yeast gene YDR539W, cultured two hours with substance | yeast gene YER044C, cultured two hours with substance | yeast gene YHR209W, cultured two hours with substance | yeast gene YOR215C, cultured two hours with substance
1.3: yeast gene YBL048W, cultured two hours with substance | yeast gene YFL010C, cultured two hours with substance | yeast gene YGL047W, cultured two hours with substance | yeast gene YIL023C, cultured two hours with substance | yeast gene YJL151C, cultured two hours with substance | yeast gene YLR054C, cultured two hours with substance | yeast gene YLR324W, cultured two hours with substance | yeast gene YLR387C, cultured two hours with substance | yeast gene YLR460C, cultured two hours with substance | yeast gene YNL074C, cultured two hours with substance | yeast gene YNL305C, cultured two hours with substance | yeast gene YPR151C, cultured two hours with substance
2.1: yeast gene YNL217W, cultured two hours with the substance
1.6: yeast gene YDR411C, cultured two hours with substance | yeast gene YER106W, cultured two hours with substance | yeast gene YJL152W, cultured two hours with substance | yeast gene YKR091W, cultured two hours with substance | yeast gene YNL156C, cultured two hours with substance
0.7: yeast gene YGL199C, cultured two hours with substance | yeast gene YMR090W, cultured two hours with substance | yeast gene YMR097C, cultured two hours with substance | yeast gene YPL206C, cultured two hours with substance
